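Dose response: 5 concentrations. Exposure: 48 h. Format: 96-well plates. Endpoint: linear interpolation; highest concentration if not reached. GI50 = concentration required for 50% inhibition of growth.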 Calls of active or inactive are those of the source. No stated cut-off is given here; in the data, active = GI50 up to about 1.1 µM and inactive = higher.
How the values were obtained:
Test in all cases: NCI anticancer screen, dose series, 48 h
[1] = test system: LOX IMVI
[2] = test system: NCI-H23
[3] = test system: HL-60
[4] = test system: RXF 393
[5] = test system: CCRF-CEM
[6] = test system: T47D
[7] = test system: SW-620
[8] = test system: SR
[9] = test system: Hs-578T
[10] = test system: Malme-3M
[11] = test system: COLO 205
[12] = test system: OVCAR-8
[13] = test system: HCC 2998
[14] = test system: HT-29
[15] = test system: HCT-15
[16] = test system: ACHN
[17] = test system: SK-MEL-28
[18] = test system: HCT-116
[19] = test system: SF-295
[20] = test system: HOP-92

| Structure (SMILES) | GI50 [1] | GI50 [2] | GI50 [3] | GI50 [4] | GI50 [5] | GI50 [6] | GI50 [7] | GI50 [8] | GI50 [9] | GI50 [10] | GI50 [11] | GI50 [12] | GI50 [13] | GI50 [14] | GI50 [15] [µM] | GI50 [16] | GI50 [17] | GI50 [18] | GI50 [19] | GI50 [20] |
| --- | --- | --- | --- | --- | --- | --- | --- | --- | --- | --- | --- | --- | --- | --- | --- | --- | --- | --- | --- | --- |
| CN(Cc1cccc2ccccc12)Cc1cccc2ccccc12 | 34.3 µM (inactive) | 26.6 µM (inactive) | 13.4 µM (inactive) | 47.1 µM (inactive) | 16.6 µM (inactive) | 21 µM (inactive) | 20.6 µM (inactive) | 30.8 µM (inactive) | 44.3 µM (inactive) | 20 µM (inactive) | 17.8 µM (inactive) | 70.5 µM (inactive) | 22.7 µM (inactive) | 15.4 µM (inactive) | 22.2 | 37.6 µM (inactive) | 35.2 µM (inactive) | 13.4 µM (inactive) | 26.7 µM (inactive) |  |
| Nc1nc(N)c2c(Cl)c(CNc3ccc(C(=O)NC(CC(=O)O)C(=O)O)cc3)ccc2n1 (stereo unspecified) | < 0.01 µM (active) | < 0.01 µM (active) | < 0.01 µM (active) |  | < 0.01 µM (active) | > 100 µM (inactive) | < 0.01 µM (active) | < 0.01 µM (active) | 22.8 µM (inactive) | 17.7 µM (inactive) | < 0.01 µM (active) | < 0.01 µM (active) | > 100 µM (inactive) | < 0.01 µM (active) | < 0.01 | < 0.01 µM (active) |  | 10.7 µM (inactive) | < 0.01 µM (active) | 0.043 µM (active) |
| O=C1c2ccccc2C(=O)N1c1ccc(Cc2ccc(N3C(=O)c4ccccc4C3=O)cc2)cc1 | > 100 µM (inactive) | > 100 µM (inactive) | < 0.01 µM (active) | > 100 µM (inactive) |  | > 100 µM (inactive) | > 100 µM (inactive) |  | > 100 µM (inactive) | > 100 µM (inactive) | > 100 µM (inactive) | > 100 µM (inactive) | > 100 µM (inactive) | > 100 µM (inactive) | > 100 | > 100 µM (inactive) | > 100 µM (inactive) | > 100 µM (inactive) | > 50.7 µM (inactive) | > 100 µM (inactive) |
| COc1cccc(/C=N/NC(=O)CN(C)C)c1O | > 100 µM (inactive) | > 100 µM (inactive) | > 100 µM (inactive) | > 100 µM (inactive) | > 100 µM (inactive) | > 100 µM (inactive) | > 100 µM (inactive) |  | > 100 µM (inactive) | > 100 µM (inactive) | > 100 µM (inactive) | > 100 µM (inactive) | > 100 µM (inactive) | > 100 µM (inactive) | > 100 | > 100 µM (inactive) | > 100 µM (inactive) | > 100 µM (inactive) | > 100 µM (inactive) | > 100 µM (inactive) |
| N#Cc1ccccc1NC(=O)C(=O)c1c(O)c2ccccc2oc1=O | > 100 µM (inactive) | > 100 µM (inactive) | > 100 µM (inactive) | > 100 µM (inactive) | > 100 µM (inactive) | > 100 µM (inactive) | > 100 µM (inactive) |  | > 100 µM (inactive) | > 100 µM (inactive) |  | > 100 µM (inactive) | > 100 µM (inactive) | > 100 µM (inactive) | > 100 | > 100 µM (inactive) | > 100 µM (inactive) | > 100 µM (inactive) | > 100 µM (inactive) | > 100 µM (inactive) |
| COc1ccc(C2SCC(=O)N2NC(=O)c2ccc(NC(C)=O)cc2)c(OC)c1 (stereo unspecified) |  | > 100 µM (inactive) | > 100 µM (inactive) | > 100 µM (inactive) |  | 93.3 µM (inactive) | > 100 µM (inactive) |  | > 100 µM (inactive) |  | > 100 µM (inactive) | > 100 µM (inactive) | > 100 µM (inactive) | > 100 µM (inactive) | > 100 | > 100 µM (inactive) | > 100 µM (inactive) | > 100 µM (inactive) | > 100 µM (inactive) | > 100 µM (inactive) |
| ClCCCN(CCCCl)c1ccc(/C=N/c2cccc(Cl)c2)cc1 | 7.57 µM (inactive) | 15.5 µM (inactive) | 12.6 µM (inactive) | 14.2 µM (inactive) | 16.4 µM (inactive) | 7.11 µM (inactive) | 12.9 µM (inactive) |  | 16.1 µM (inactive) | 6.22 µM (inactive) | 47.6 µM (inactive) | 6.95 µM (inactive) | 32.1 µM (inactive) | 23.6 µM (inactive) | 18.1 | 7.26 µM (inactive) | 55.8 µM (inactive) | 32.5 µM (inactive) | 15 µM (inactive) | 29.2 µM (inactive) |
| CC1OC2OC3C(OCC(O)C3O)OC(=O)[C@]34CCC(C)(C)CC3C3=CCC5[C@@]6(C)C[C@H](O)[C@H](OC7OC(CO)C(O)C(O)C7OC7OCC(OC(=O)CC(C)(O)CC(=O)OC1C(O)C2O)C(O)C7O)[C@@](C)(CO)C6CC[C@@]5(C)[C@]3(C)CC4 (stereo partly specified) | 9.86 µM (inactive) | 3.1 µM (inactive) | 1.82 µM (inactive) |  | 5.68 µM (inactive) | 4.98 µM (inactive) | 8.85 µM (inactive) | 6.35 µM (inactive) | 8.34 µM (inactive) | 3.68 µM (inactive) | 1.89 µM (inactive) | 4.5 µM (inactive) | 2.43 µM (inactive) | 2.73 µM (inactive) | 7.98 | 6.34 µM (inactive) | 1.96 µM (inactive) | 5.75 µM (inactive) | 3.42 µM (inactive) | 2.32 µM (inactive) |
| CC(C)C[P+](c1ccccc1)(c1ccccc1)c1ccccc1 | 11.3 µM (inactive) | 7.4 µM (inactive) | 2.29 µM (inactive) |  | 0.419 µM (active) | 11.8 µM (inactive) | 5.87 µM (inactive) |  | 11.2 µM (inactive) | 5.7 µM (inactive) | 3.08 µM (inactive) |  | 8.57 µM (inactive) | 3.64 µM (inactive) | 64.3 | 20.2 µM (inactive) | 22.6 µM (inactive) | 4.3 µM (inactive) | 13.2 µM (inactive) | 3.32 µM (inactive) |
| O=C(NCCCCCCNCc1cccc2ccccc12)Nc1cccc2ccccc12 | > 100 µM (inactive) | > 100 µM (inactive) | > 100 µM (inactive) | > 100 µM (inactive) | > 100 µM (inactive) | > 100 µM (inactive) | > 100 µM (inactive) |  | > 100 µM (inactive) | > 100 µM (inactive) | > 100 µM (inactive) | > 100 µM (inactive) | 85.3 µM (inactive) | > 100 µM (inactive) | > 100 | > 100 µM (inactive) | > 100 µM (inactive) | > 100 µM (inactive) | > 100 µM (inactive) | > 100 µM (inactive) |
| CCOC(=O)C1=CC(C)(C(=O)OCC)Nc2c(nc(OC)[nH]c2=O)N1 (stereo unspecified) | > 10 µM (inactive) | > 10 µM (inactive) |  | > 10 µM (inactive) | > 10 µM (inactive) | > 10 µM (inactive) | > 10 µM (inactive) |  | > 10 µM (inactive) | > 10 µM (inactive) | > 10 µM (inactive) | > 10 µM (inactive) | > 10 µM (inactive) | > 10 µM (inactive) | > 10 | > 10 µM (inactive) | > 10 µM (inactive) | > 10 µM (inactive) | > 10 µM (inactive) | > 10 µM (inactive) |
| Cc1cc(S(=O)(=O)[N-]/C(=N/S(=O)(=O)c2ccc(Cl)cc2)[n+]2ccc(N(C)C)cc2)c(S)cc1Cl | > 100 µM (inactive) | > 100 µM (inactive) | 34.8 µM (inactive) | 84.1 µM (inactive) | 46.2 µM (inactive) | > 100 µM (inactive) | 58.3 µM (inactive) | < 0.01 µM (active) | 54.8 µM (inactive) |  |  | > 100 µM (inactive) | > 100 µM (inactive) | 44.6 µM (inactive) | 75.7 | > 100 µM (inactive) | > 100 µM (inactive) | 20.5 µM (inactive) | 40.2 µM (inactive) |  |
| CN(/N=C/c1ccc(OCc2cccc(COc3ccc(C=O)cc3)n2)cc1)c1cnn(-c2ccc(Cl)cc2Cl)c(=O)c1Cl | 88.1 µM (inactive) | > 100 µM (inactive) | > 100 µM (inactive) | 21.5 µM (inactive) | > 100 µM (inactive) | > 100 µM (inactive) | > 100 µM (inactive) | > 100 µM (inactive) | > 100 µM (inactive) | 84.1 µM (inactive) | > 100 µM (inactive) | > 100 µM (inactive) | > 100 µM (inactive) | > 100 µM (inactive) | > 100 | 73.5 µM (inactive) | > 100 µM (inactive) | > 100 µM (inactive) | 20.2 µM (inactive) |  |
| COc1cc([N+](=O)[O-])c(S(=O)(=O)O)cc1-n1nc(-c2ccccc2)n[n+]1-c1cc(S(=O)(=O)[O-])c([N+](=O)[O-])cc1OC | > 100 µM (inactive) | > 100 µM (inactive) | > 100 µM (inactive) | > 100 µM (inactive) | > 100 µM (inactive) | > 100 µM (inactive) | > 100 µM (inactive) | > 100 µM (inactive) | > 100 µM (inactive) | > 100 µM (inactive) | > 100 µM (inactive) | > 100 µM (inactive) | > 100 µM (inactive) | > 100 µM (inactive) | > 100 | > 100 µM (inactive) | > 100 µM (inactive) | > 100 µM (inactive) | > 100 µM (inactive) |  |
| Cc1ccc2c(c1)[n+]([O-])c(N)n[n+]2[O-] | 85.3 µM (inactive) | 63.2 µM (inactive) | > 100 µM (inactive) |  | 91.2 µM (inactive) | 93.5 µM (inactive) | > 100 µM (inactive) | > 100 µM (inactive) | > 100 µM (inactive) |  | 63.1 µM (inactive) | > 100 µM (inactive) |  | > 100 µM (inactive) | 64.9 | > 100 µM (inactive) | > 100 µM (inactive) | > 100 µM (inactive) | > 100 µM (inactive) |  |

— ChEMBL document CHEMBL1201862, “PubChem BioAssay data set” (2004)
